Tests used:
hGLUT1 [1] = target: T1, hGLUT1 (Homo sapiens, UniProt P11166); assay: [3H]-2-deoxy-D-glucose uptake inhibition assay in CHO-hGLUT1 cells; type: cell-based
T1 sequence (P11166 1-492): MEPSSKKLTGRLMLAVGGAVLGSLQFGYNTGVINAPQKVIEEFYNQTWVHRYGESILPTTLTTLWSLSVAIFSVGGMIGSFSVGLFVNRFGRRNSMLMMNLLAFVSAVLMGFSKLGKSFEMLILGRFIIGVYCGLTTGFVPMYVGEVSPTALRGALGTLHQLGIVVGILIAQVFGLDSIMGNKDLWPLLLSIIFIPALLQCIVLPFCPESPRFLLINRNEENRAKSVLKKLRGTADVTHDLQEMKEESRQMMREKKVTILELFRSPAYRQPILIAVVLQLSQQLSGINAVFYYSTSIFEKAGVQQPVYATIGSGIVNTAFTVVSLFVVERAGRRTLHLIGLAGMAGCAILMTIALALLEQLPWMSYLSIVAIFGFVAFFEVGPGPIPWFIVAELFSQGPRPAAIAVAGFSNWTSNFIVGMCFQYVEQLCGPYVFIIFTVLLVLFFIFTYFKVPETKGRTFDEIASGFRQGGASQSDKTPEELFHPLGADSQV

hGLUT1 [2] = target: T1, hGLUT1; settings: known hGLUT1 inhibitors; cited from earlier work

SMILES | IC50 (hGLUT1 [1]) | LE (ligand efficiency) (hGLUT1 [2])
O=C(CCc1ccc(O)cc1)c1c(O)cc(O)cc1O[C@@H]1O[C@H](CO)[C@@H](O)[C@H](O)[C@H]1O [PUG-5, phlorizin] | 23 µM | –
C=C1[C@@H](C)[C@H]2[C@H](Cc3ccccc3)NC(=O)[C@]23OC(=O)/C=C/[C@H](O)CCC[C@@H](C)C/C=C/[C@H]3[C@@H]1O [cytochalasin B] | – | 0.265 kcal/mol/HA
C=C[C@@]1(C)CC(=O)[C@]2(O)[C@@]3(C)[C@@H](O)CCC(C)(C)[C@@H]3[C@H](O)[C@H](OC(C)=O)[C@@]2(C)O1 [forskolin] | – | 0.270 kcal/mol/HA

Source: PMC5356226 (ACS chemical biology, 2016)
